Assay results reported in patent US20240217983A1, “GPR119 AGONISTS” (Kallyope, Inc., priority 2021, published 2024).

Target: T1, human GPR119 (hGPR119) (Homo sapiens, UniProt Q8TDV5)
T1 construct: expressed in transfected cells
T1 sequence (Q8TDV5 1-335): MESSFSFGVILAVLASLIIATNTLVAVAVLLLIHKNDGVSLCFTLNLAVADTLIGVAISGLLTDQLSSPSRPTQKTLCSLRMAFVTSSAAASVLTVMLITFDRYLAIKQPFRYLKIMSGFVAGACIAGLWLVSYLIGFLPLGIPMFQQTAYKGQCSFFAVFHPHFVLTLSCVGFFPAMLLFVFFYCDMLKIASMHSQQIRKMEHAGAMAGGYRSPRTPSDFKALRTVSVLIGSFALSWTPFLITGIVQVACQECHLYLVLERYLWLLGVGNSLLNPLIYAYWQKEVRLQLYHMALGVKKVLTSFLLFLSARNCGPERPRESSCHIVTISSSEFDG
Assay: cAMP accumulation assay (Cisbio cAMP Gs dynamic HTRF kit) in CHO-K1 cells stably expressing human GPR119
Assay type: cell-based
Settings: 4-parameter fit; for Emax: 1 h, % activity normalized to Max and Min controls; for EC50: 60 minutes at 37° C.
Protocol: CHO-K1 cells stably expressing human GPR119 (hGPR119) were prepared by transfection of a GPR119-carrying plasmid using Lipofectamine 2000 (following manufacturer instructions). A stable cell line was established using the limiting dilution method with geneticine selection. Assay-ready frozen (ARF) cells were prepared and used throughout the study.
The assay was performed in a 384-well plate format using the cAMP Gs dynamic assay kit from Cisbio. ARF cells expressing hGPR119 were thawed, washed and then resuspended in cAMP stimulation buffer at a cell density of 1.1×10^6 cells/mL. Cells were plated at a density of ˜10,000 cells/well (9 μL/well). Dose response curves for the tested compounds were prepared in a cAMP stimulation buffer, containing 0.1% Tween 80 at 4 fold the final concentration. The compounds were then transferred to the cell plates using BRAVO (3 μL/well) and the plates were incubated for 60 minutes at 37° C./5% CO2. Detection buffer (10 μL, prepared as described in the cAMP Gs dynamic kit) were added to each well, and the plates were incubated at ambient temperature for 1 hr.
RT-FRET was measured using a ClarioSTAR plate reader, calculating the ratio between emissions at 665 nm and 620 nm (HTRF ratio). The HTRF ratio for positive (Max) and negative (Min) controls were used to normalize HTRF data and generate values for % activity. EC50 and Max activity values were determined using a standard 4-parameter fit.

SMILES	Emax [%]	EC50 [nM]
O=C(Cc1ccc(OCCCC2CCN(c3ncc(Cl)cn3)CC2)cc1F)N1CC2(C1)N(C[C@H](O)[C@@H](O)[C@H](O)[C@H](O)CO)CC2(F)F [Example 63, 2-(4-(3-(1-(5-chloropyrimidin-2-yl)piperidin-4-yl)propoxy)-2-fluorophenyl)-1-(3,3-difluoro-1-((2S,3R,4R,5R)-2,3,4,5,6-pentahydroxyhexyl)-1,6-diazaspiro[3.3]heptan-6-yl)ethan-1-one]	≥ 130	≤ 100
CCCc1cnc(N2CCC(CCCOc3cc(F)c(CC(=O)N4CCN(C[C@H](O)[C@@H](O)[C@H](O)[C@H](O)CO)CC4)c(F)c3)CC2)nc1 [Example 95, 2-(2,6-difluoro-4-(3-(1-(5-propylpyrimidin-2-yl)piperidin-4-yl)propoxy)phenyl)-1-(4-((2S,3R,4R,5R)-2,3,4,5,6-pentahydroxyhexyl)piperazin-1-yl)ethan-1-one]	100 to 130	≤ 100
O=C(Cc1ccc(OCCCC2CCN(c3ncc(Cl)cn3)CC2)cc1F)N1CCCN(C[C@H](O)[C@@H](O)[C@H](O)[C@H](O)CO)CC1 [Example 51, 2-(4-(3-(1-(5-chloropyrimidin-2-yl)piperidin-4-yl)propoxy)-2-fluorophenyl)-1-(4-((2S,3R,4R,5R)-2,3,4,5,6-pentahydroxyhexyl)-1,4-diazepan-1-yl)ethan-1-one]	100 to 130	≤ 100
O=C(Cc1ccc(OCCCC2CCN(c3ncc(Cl)cn3)CC2)cc1F)N1CC2(CCC2NC[C@H](O)[C@H](O)[C@H](O)CO)C1 (stereo partly drawn) [Example 78, 2-(4-(3-(1-(5-chloropyrimidin-2-yl)piperidin-4-yl)propoxy)-2-fluorophenyl)-1-(5-(((2S,3S,4R)-2,3,4,5-tetrahydroxypentyl)amino)-2-azaspiro[3.3]heptan-2-yl)ethan-1-one]	≥ 130	≤ 100
O=C(Cc1ccc(OCCCC2CCN(c3ncc(Cl)cn3)CC2)cc1F)N1CC2(C1)N(C[C@H](O)[C@H](O)[C@H](O)CO)CC2(F)F [Example 62, 2-(4-(3-(1-(5-chloropyrimidin-2-yl)piperidin-4-yl)propoxy)-2-fluorophenyl)-1-(3,3-difluoro-1-((2S,3S,4R)-2,3,4,5-tetrahydroxypentyl)-1,6-diazaspiro[3.3]heptan-6-yl)ethan-1-one]	100 to 130	≤ 100
O=C(Cc1ccc(OCCC2CC3(CCN(c4ncc(Cl)cn4)CC3)C2)cc1F)N1CCN(C[C@H](O)[C@@H](O)[C@H](O)[C@H](O)CO)CC1 [Example 110, 2-(4-(2-(7-(5-chloropyrimidin-2-yl)-7-azaspiro[3.5]nonan-2-yl)ethoxy)-2-fluorophenyl)-1-(4-((2S,3R,4R,5R)-2,3,4,5,6-pentahydroxyhexyl)piperazin-1-yl)ethan-1-one]	100 to 130	100 to 1000
O=C(Cc1ccc(OCCCC2CCN(c3ncc(Cl)cn3)CC2)cc1F)N1CCC2(CCN(C[C@H](O)[C@H](O)[C@H](O)CO)C2)C1 (stereo partly drawn) [Example 42, 2-(4-(3-(1-(5-chloropyrimidin-2-yl)piperidin-4-yl)propoxy)-2-fluorophenyl)-1-(7-((2S,3S,4R)-2,3,4,5-tetrahydroxypentyl)-2,7-diazaspiro[4.4]nonan-2-yl)ethan-1-one]	100 to 130	≤ 100
O=C(Cc1ccc(OCCC2CC23CCN(c2ncc(Cl)cn2)CC3)cc1F)N1CCN(C[C@H](O)[C@@H](O)[C@H](O)[C@H](O)CO)CC1 (stereo partly drawn) [Example 108, 2-(4-(2-(6-(5-chloropyrimidin-2-yl)-6-azaspiro[2.5]octan-1-yl)ethoxy)-2-fluorophenyl)-1-(4-((2S,3R,4R,5R)-2,3,4,5,6-pentahydroxyhexyl)piperazin-1-yl)ethan-1-one]	100 to 130	100 to 1000
O=C(Cc1ccc(OCCCC2CCN(c3ncc(Cl)cn3)CC2)nc1)N1CCN(C[C@H](O)[C@@H](O)[C@H](O)[C@H](O)CO)CC1 [Example 90, 2-(6-(3-(1-(5-chloropyrimidin-2-yl)piperidin-4-yl)propoxy)pyridin-3-yl)-1-(4-((2S,3R,4R,5R)-2,3,4,5,6-pentahydroxyhexyl)piperazin-1-yl)ethan-1-one]	100 to 130	100 to 1000
O=C(CCCCS(=O)(=O)O)N1CCOC2(CCN(C(=O)Cc3ccc(OCCCC4CCN(c5ncc(Cl)cn5)CC4)cc3F)C2)C1 (centres unmarked) [Example 24, 5-(2-(2-(4-(3-(1-(5-chloropyrimidin-2-yl)piperidin-4-yl)propoxy)-2-fluorophenyl)acetyl)-6-oxa-2,9-diazaspiro[4.5]decan-9-yl)-5-oxopentane-1-sulfonic acid]	100 to 130	≤ 100
O=C(Cc1ccc(OCCCC2CCN(c3ncc(Cl)cn3)CC2)c(F)c1)N1CCN(C[C@H](O)[C@@H](O)[C@H](O)[C@H](O)CO)CC1 [Example 91, 2-(4-(3-(1-(5-chloropyrimidin-2-yl)piperidin-4-yl)propoxy)-3-fluorophenyl)-1-(4-((2S,3R,4R,5R)-2,3,4,5,6-pentahydroxyhexyl)piperazin-1-yl)ethan-1-one]	100 to 130	100 to 1000
O=C(Cc1ccc(OCCCC2CCN(c3ncc(Cl)cn3)CC2)cc1F)N1CC2(C1)N(C(=O)CCCCS(=O)(=O)O)CC2(F)F [Example 19, 5-(6-(2-(4-(3-(1-(5-chloropyrimidin-2-yl)piperidin-4-yl)propoxy)-2-fluorophenyl)acetyl)-3,3-difluoro-1,6-diazaspiro[3.3]heptan-1-yl)-5-oxopentane-1-sulfonic acid]	100 to 130	≤ 100
O=C(Cc1ccc(OCCCC2CCN(c3ncc(Cl)cn3)CC2)cc1F)N1CC2CCC1CN2C[C@H](O)[C@H](O)[C@H](O)CO (stereo partly drawn) [Example 52, 2-(4-(3-(1-(5-chloropyrimidin-2-yl)piperidin-4-yl)propoxy)-2-fluorophenyl)-1-(5-((2S,3S,4R)-2,3,4,5-tetrahydroxypentyl)-2,5-diazabicyclo[2.2.2]octan-2-yl)ethan-1-one]	≥ 130	≤ 100
O=C(Cc1ccc(OCCCC2CCN(c3ncc(Cl)cn3)CC2)cc1F)N1CCC2(CN(C[C@H](O)[C@@H](O)[C@H](O)[C@H](O)CO)C2)C1 [Example 29, 2-(4-(3-(1-(5-chloropyrimidin-2-yl)piperidin-4-yl)propoxy)-2-fluorophenyl)-1-(2-((2S,3R,4R,5R)-2,3,4,5,6-pentahydroxyhexyl)-2,6-diazaspiro[3.4]octan-6-yl)ethan-1-one]	100 to 130	≤ 100
O=C(Cc1ccc(OCCCC2CCN(c3ncc(Cl)cn3)CC2)cc1F)N1CCCN(C[C@H](O)[C@H](O)[C@H](O)CO)CC1 [Example 50, 2-(4-(3-(1-(5-chloropyrimidin-2-yl)piperidin-4-yl)propoxy)-2-fluorophenyl)-1-(4-((2S,3S,4R)-2,3,4,5-tetrahydroxypentyl)-1,4-diazepan-1-yl)ethan-1-one]	100 to 130	≤ 100
O=C(Cc1ccc(OCCCC2CCN(c3ncc(Cl)cn3)CC2)cc1F)N1CCC2(CC1)CCN2C(=O)CCCCS(=O)(=O)O [Example 21, 5-(7-(2-(4-(3-(1-(5-chloropyrimidin-2-yl)piperidin-4-yl)propoxy)-2-fluorophenyl)acetyl)-1,7-diazaspiro[3.5]nonan-1-yl)-5-oxopentane-1-sulfonic acid]	100 to 130	≤ 100
O=C(Cc1ccc(OCCCC2CCN(c3ncc(Cl)cn3)CC2)cc1F)N1CCC12CN(C[C@H](O)[C@H](O)[C@H](O)CO)C2 [Example 40, 2-(4-(3-(1-(5-chloropyrimidin-2-yl)piperidin-4-yl)propoxy)-2-fluorophenyl)-1-(6-((2S,3S,4R)-2,3,4,5-tetrahydroxypentyl)-1,6-diazaspiro[3.3]heptan-1-yl)ethan-1-one]	100 to 130	100 to 1000
O=C(Cc1ccc(OCCCCC2CC3(CCN(c4ncc(Cl)cn4)CC3)C2)cc1F)N1CCN(C[C@H](O)[C@@H](O)[C@H](O)[C@H](O)CO)CC1 [Example 112, 2-(4-(4-(7-(5-chloropyrimidin-2-yl)-7-azaspiro[3.5]nonan-2-yl)butoxy)-2-fluorophenyl)-1-(4-((2S,3R,4R,5R)-2,3,4,5,6-pentahydroxyhexyl)piperazin-1-yl)ethan-1-one]	100 to 130	100 to 1000
O=C(Cc1ccc(OCCCC2CCN(c3ncc(Cl)cn3)CC2)cc1F)N1CCC2(CCN2C[C@H](O)[C@H](O)[C@H](O)CO)C1 (stereo partly drawn) [Example 30, 2-(4-(3-(1-(5-chloropyrimidin-2-yl)piperidin-4-yl)propoxy)-2-fluorophenyl)-1-(1-((2S,3S,4R)-2,3,4,5-tetrahydroxypentyl)-1,6-diazaspiro[3.4]octan-6-yl)ethan-1-one]	100 to 130	≤ 100
